The subject of data set [1] is U-251. Description: Antiproliferative activity against human U-251 cells assessed as cell viability measured after 72 hrs by MTT assay. The format is functional, cell-based. As to conditions: for IC50: U-251, 72 h. (Formazan colour is commonly taken as a measure of viable cells.)
The nature of data set [2]: Permeability coefficient of compound by lipid-PAMPA assay. As to conditions: for Papp: read-out: Peff. It is filed as ADME. (In general: In PAMPA a lipid-coated filter parts donor from acceptor wells.)
Data set [3] concerns U-87 MG. Nature of the data set: Antiproliferative activity against human U87 cells assessed as cell viability measured after 72 hrs by MTT assay. The format is functional, cell-based, U-87MG ATCC.
Data set [4] concerns U-87 MG. Description: Antiproliferative activity against human U87 cells assessed as inhibition rate at 20 uM measured after 72 hrs by MTT assay relative to control. The format is functional, U-87MG ATCC.
The subject of data set [5] is U-251. Nature of the data set: Antiproliferative activity against human U-251 cells assessed as inhibition rate at 20 uM measured after 72 hrs by MTT assay relative to control. The format is functional.

Calls of active or inactive are those of the source. The rule behind the calls is not given here.

`Cn1nnc2c(C(N)=O)ncn2c1=O` [TEMOZOLOMIDE]: the IC50 with U-251 [1] and with U-87 MG [3] was greater than 50 µM in each case. For the same molecule, in data set [2], the Peff was 0.002 10^-6 cm/s.
In the case of `O=C(/C=C/c1ccc(C(=O)N2CCN(Cc3ccccc3)C23COC3)cc1)c1ccccc1`, the 50% inhibitory concentration (IC50) in the data set with U-251 [1] is 3 µM; in the data set on U-87 MG [3] it was 5 µM.
In the case of `O=C(/C=C/c1ccc(C(=O)N2CCN(Cc3ccccc3)C23COC3)o1)c1ccncc1`, the IC50 in the data set with U-251 [1] amounted to 6 µM; with U-87 MG [3] it was 10.5 µM.
Taken in the same sequence, the figures for `O=C(/C=C/c1cccc(C(=O)N2CCN(Cc3ccccc3)C23COC3)c1)c1ccncc1` were 6.2 µM and 7.2 µM.
For the molecule `COc1ccc(C(=O)/C=C/c2cccc(C(=O)N3CCN(Cc4ccccc4)C34COC4)c2)cc1OC`, the IC50 in the data set on U-251 [1] came out at 1.6 µM; with U-87 MG [3] it was 4.4 µM.
Turning to `COc1cc(C(=O)/C=C/c2ccc(C(=O)N3CCN(Cc4ccccc4)C34COC4)s2)cc(OC)c1OC`, the concentration for half-maximal inhibition (IC50) worked out at 2.1 µM in the data set with U-251 [1] and 4 µM in the data set on U-87 MG [3].
Take `O=C(/C=C/c1ccc(C(=O)N2CCN(Cc3ccccc3)C23COC3)s1)c1ccncc1`: the half-inhibitory concentration (IC50) in the data set with U-251 [1] stood at 6.6 µM; in the data set on U-87 MG [3], 6.7 µM.
Regarding `COc1ccc(C(=O)/C=C/c2cccc(C(=O)N3CCN(Cc4ccccc4)C34COC4)c2)cc1`, the IC50 with U-251 [1] was 2 µM; in the data set with U-87 MG [3], 2.6 µM.
For the molecule `COc1ccc(C(=O)/C=C/c2ccccc2C(=O)N2CCN(Cc3ccccc3)C23COC3)cc1OC`, the IC50 in the data set with U-251 [1] and in the data set on U-87 MG [3] was greater than 10 µM throughout.
As to `COc1cc(C(=O)/C=C/c2ccccc2C(=O)N2CCN(Cc3ccccc3)C23COC3)cc(OC)c1OC`, the IC50 amounted to 4.9 µM in the data set with U-251 [1] and 5.5 µM in the data set with U-87 MG [3].
Taken in the same sequence, the figures for `O=C(/C=C/c1ccc(C(=O)N2CCN(Cc3ccccc3)C23COC3)cc1)c1ccsc1` were 3.6 µM and 8.5 µM.
Regarding `O=C(CCl)N1CCN(Cc2ccccc2)C12COC2`, the IC50 in the data set on U-251 [1] was 8.6 µM; in the data set on U-87 MG [3], 11.5 µM. The Papp in data set [2] was 23.4 ×10⁻⁶ cm/s. The values for the inhibition at 20 µM in the data set on U-87 MG [4] and in the data set on U-251 [5] were 90.1% and 87.7%, respectively.
With `COc1cc(/C=C/C(=O)c2ccc(C(=O)N3CCN(Cc4ccccc4)C34COC4)s2)cc(OC)c1OC`, the results for the IC50 in the data set on U-251 [1] and in the data set with U-87 MG [3] were 1.4 µM and 2 µM, respectively.
In the case of `O=C(/C=C/c1ccc(C(=O)N2CCN(Cc3ccccc3)C23COC3)s1)c1ccsc1`, the results for the IC50 in the data set on U-251 [1] and in the data set on U-87 MG [3] were 1.9 µM and 4.1 µM, respectively.
The corresponding values for `COc1ccc(C(=O)/C=C/c2ccccc2C(=O)N2CCN(Cc3ccccc3)C23COC3)c(OC)c1OC` are 11 µM and greater than 10 µM.
Taken in the same sequence, the figures for `COc1cc(C(=O)/C=C/c2ccc(C(=O)N3CCN(Cc4ccccc4)C34COC4)o2)cc(OC)c1OC` were 7.6 µM and 14.9 µM.
In the case of `COc1ccc(C(=O)/C=C/c2ccc(C(=O)N3CCN(Cc4ccccc4)C34COC4)cc2)cc1OC`, the IC50 in the data set with U-251 [1] turned out to be 1.8 µM; in the data set with U-87 MG [3] it was 3.7 µM.
`COc1ccc(C(=O)/C=C/c2ccc(C(=O)N3CCN(Cc4ccccc4)C34COC4)cc2)c(OC)c1OC`: the IC50 in the data set with U-251 [1] turned out to be 1.7 µM; with U-87 MG [3], 3.5 µM.
As to `COc1ccc(C(=O)/C=C/c2ccccc2C(=O)N2CCN(Cc3ccccc3)C23COC3)cc1`, the concentration for half-maximal inhibition (IC50) in the data set with U-251 [1] is 11.6 µM; in the data set on U-87 MG [3], greater than 10 µM.
Taken in the same sequence, the figures for `N#Cc1cccc(C(=O)/C=C/c2ccc(C(=O)N3CCN(Cc4ccccc4)C34COC4)cc2)c1` were 5.4 µM and 6.1 µM.
Regarding `COc1ccc(C(=O)/C=C/c2cccc(C(=O)N3CCN(Cc4ccccc4)C34COC4)c2)c(OC)c1OC`, the values for the IC50 in the data set on U-251 [1] and in the data set with U-87 MG [3] were 1.2 µM and 2 µM, respectively.
On to `N#Cc1ccc(C(=O)/C=C/c2ccc(C(=O)N3CCN(Cc4ccccc4)C34COC4)cc2)cc1`, for which the IC50 in the data set with U-251 [1] was found to be 5.4 µM; with U-87 MG [3] it was 6.3 µM.
`O=C(/C=C/c1ccccc1C(=O)N1CCN(Cc2ccccc2)C12COC2)c1ccccc1`: the values for the IC50 with U-251 [1] and in the data set on U-87 MG [3] were 7.4 µM and 10.4 µM, respectively.
Taken in the same sequence, the figures for `O=C(/C=C/c1cccc(C(=O)N2CCN(Cc3ccccc3)C23COC3)c1)c1ccccc1` were 2.1 µM and 3.1 µM.
The corresponding values for `O=C(/C=C/c1ccc(C(=O)N2CCN(Cc3ccccc3)C23COC3)cc1)c1ccccn1` are 4.2 µM and 5.2 µM.
Taken in the same sequence, the figures for `O=C(/C=C/c1ccc(C(=O)N2CCN(Cc3ccccc3)C23COC3)o1)c1ccsc1` were 12.6 µM and greater than 10 µM.
`COc1cc(C(=O)CCc2ccc(C(=O)N3CCN(Cc4ccccc4)C34COC4)cc2)cc(OC)c1OC`: the outcome in the data set with U-251 [1] was Active.
`COc1cc(C(=O)/C=C/c2cccc(C(=O)N3CCN(Cc4ccccc4)C34COC4)c2)cc(OC)c1OC`: the IC50 was 1.1 µM in the data set on U-251 [1] and 2.2 µM with U-87 MG [3].
For the molecule `O=C(CBr)N1CCN(Cc2ccccc2)C12COC2`, the results for the IC50 in the data set with U-251 [1] and with U-87 MG [3] were 13.9 µM and 14.6 µM, respectively. The Papp in data set [2] turned out to be 26.9 ×10⁻⁶ cm/s. The values for the inhibition at 20 µM in the data set on U-87 MG [4] and with U-251 [5] were 74.3% and 63.9%, respectively.
In the case of `O=C(/C=C/c1ccncc1)c1ccc(C(=O)N2CCN(Cc3ccccc3)C23COC3)cc1`, the 50% inhibitory concentration (IC50) stood at 3.3 µM with U-251 [1] and 3 µM with U-87 MG [3].
`COc1ccc(C(=O)/C=C/c2ccc(C(=O)N3CCN(Cc4ccccc4)C34COC4)cc2)cc1`: the half-inhibitory concentration (IC50) with U-251 [1] was 2.4 µM; in the data set with U-87 MG [3], 3.2 µM.
Taken in the same sequence, the figures for `O=C(/C=C/c1ccc(C(=O)N2CCN(Cc3ccccc3)C23COC3)cc1)c1ccncc1` were 5.3 µM and 5.3 µM.
Consider `COc1cc(/C=C/C(=O)c2ccc(C(=O)N3CCN(Cc4ccccc4)C34COC4)cc2)cc(OC)c1OC`, for which the figures for the concentration for half-maximal inhibition (IC50) in the data set with U-251 [1] and in the data set on U-87 MG [3] were 2.2 µM and 3.7 µM, respectively.
Taken in the same sequence, the figures for `O=C(/C=C/c1ccc(C(=O)N2CCN(Cc3ccccc3)C23COC3)cc1)c1cccnc1` were 5.5 µM and 7.3 µM.

A word on the IC50: it is the point on the concentration scale where inhibition reaches its midpoint. By inhibition is commonly meant the change of the read-out against control, counted positive when it falls.

(Values after ChEMBL document CHEMBL5620401, “Design, synthesis, and biological evaluation of novel spirocyclic compounds as potential anti-glioblastoma agents” (Eur J Med Chem, 2023).)
